Experimental data from paper PMC3334918, “Mutagenesis and Functional Studies with Succinate Dehydrogenase Inhibitors in the Wheat Pathogen Mycosphaerella graminicola” (PLoS ONE, 2012).

Assays:
[1] = system: M. graminicola WT (IPO323); assay: microbe, parasite or virus in culture; format: cell-based, Mycosphaerella graminicola
Protocol: To explore the sensitivity profiles conferred by amino acid substitutions at the cellular and mitochondrial level, we determined sensitivity towards 4 different compounds for 26 of the identified substitution types both in vivo using liquid culture growth (AE media) and in vitro using purified mitochondria and the succinate: Q0/DCPIP activity test (Table 3). […] Resistance factors (RF) were determined as the ratio IC50mutant/IC50WT. […] Qp site mutations are well known to influence SDH enzyme activity and stability upon catalysis, [13], [38], [41].
Conidial cells were collected from 4 day old V8 agar plates (cultured at 18°C in the dark) using liquid AE and a cell spreader. Cell density was determined and cells re-suspended to a concentration of 5×10^5 cells ml^−1 in AE media. Sterile 96 wells microtiter plates with lids (Costar) were inoculated with 198 µl of this cell suspension (10^5 cells per well) and 2 µl of inhibitor (100× in DMSO). Final inhibitor concentrations were between 0.95 nM and 1 mM with uniform 4× dilution factor steps (11 inhibitor concentrations+1 DMSO control). Plates were incubated for 6 days at 19°C in the dark before cells were re-suspended and measured for growth (OD600 nm). IC50 values were determined by non linear curve fitting on the basis of measured OD values versus log inhibitor concentrations (GraphPad Prism 5.0 software).

[2] = system: M. graminicola isolate IPO323; assay: UV mutagenesis and selection of resistant colonies on carboxamide amended AE agar; format: cell-based, Mycosphaerella graminicola
Protocol: Selection plates were produced after adding 1% of a 100× DMSO solution of the active ingredients to pre-melted AE-agar.
Cells were harvested from 4 days old V8 agar plates and conidial cells were suspended in liquid AE. 10^7 cells were spread onto carboxamide amended AE agar plates and mutagenized using UV Stratalinker 2400 (Stratagene) with 75 mJ cm^−2 or 50 mJ cm^−2. […] Selection plates were incubated in the dark at 20°C for 14 days. Visible colonies were picked from the primary selection plate and re-grown on fresh selection media for 2 additional weeks under the same conditions.

CC(C)C1C2CCC1c1c(NC(=O)c3cn(C)nc3C(F)F)cccc12 (stereo not drawn) [Isopyrazam]
Resistance Factors (RFs) in vivo ([1]; None, IPO323, ratio IC50mutant/IC50WT): 1
IC50 ([1]; Zymoseptoria tritici, WT (IPO323), liquid culture growth, ±S.E. (triplicate), read-out: IC50 in vivo): 55 ± 2 nM
Frequency (of resistance development) ([2]; selection at 5× MSC, UV treatment 50 mJ cm^−2): 1.4E-07
Frequency (of resistance development) ([2]; selection at 5× MSC, UV treatment 75 mJ cm^−2): 1.7E-07
Frequency (of resistance development) ([2]; selection at MSC, UV treatment 50 mJ cm^−2): 3.2E-07
Frequency (of resistance development) ([2]; selection at MSC, UV treatment 75 mJ cm^−2): 4.1E-07
